Measurements from the NIST ThermoML archive (doi:10.1016/j.jct.2012.09.011).

Assay: cn = amount concentration of the nth substance listed, in mol/dm3
Conditions: 310.15 K, 101 kPa, Liquid, Taylor dispersion method

[Cl][Cd][Cl] [cadmium chloride] + O
Conditions | binary diffusion coefficient [m2/s]
c1 = 0 | 1.39e-09
c1 = 0.001 | 1.34e-09
c1 = 0.003 | 1.32e-09
c1 = 0.005 | 1.28e-09
c1 = 0.008 | 1.28e-09
c1 = 0.01 | 1.28e-09
c1 = 0.05 | 1.2e-09
c1 = 0.1 | 1.2e-09
c1 = 0.4 | 1.26e-09
